Key:
TF-1 cells [1] = assay: In-vitro bioassay in TF1 cell lines (proliferation, alamar Blue); conditions: treated 48 h without rhGMCSF, normalized to cell control
platelet counts = conditions: rats, 100 mg/kg twice daily P.O. for 7 days, versus water control
Description: A preliminary study was conducted in rats using pure succinic acid (from commercial source). Six animals were used in each group (control and treated). The treated group received a dose of 100 mg/kg succinic acid twice daily P.O. whereas the control group received water of same volume as in treated twice daily. CBC (Complete Blood counts) was performed from the blood withdrawn from individual rats.

TF-1 cells [2] = conditions: normalised to untreated cells (CC), triplicates
Description: For RNA-seq analysis, TF-1 cells were either treated with the positive control GMCSF (GM) or with succinate (E01). Untreated TF-1 cells (CC) were used as a control to determine basal gene expression. RNA-seq was performed in triplicates from all the three groups. The gene expression from E01 or GM group was normalised to the expression of CC.

WI38 cells = conditions: WI38 fibroblasts, mitogen-deprived medium (0.1% FBS), 48 h in presence of succinate

With `O=C([O-])CCC(=O)[O-].[Mg+2]` [Mg salt of succinic acid] as the compound, how does the “cellular proliferation in TF-1 cells” value (TF-1 cells [1]) read?
The value was “showed proliferation activity”.

With `O=C([O-])CCC(=O)[O-].[Na+].[Na+]` [Sodium Succinate] as the compound, how does the “cellular proliferation in TF-1 cells” value (TF-1 cells [1]; listed as Na salt of succinic acid) read?
Its value is “showed proliferation activity”.

With `O=C(O)CCC(=O)O` [succinic acid, Succinic acid] as the compound, how does the platelet counts (platelet counts) read?
The platelet counts was “substantially increase the platelet counts”.

What about the “cellular proliferation in TF-1 cells” value (TF-1 cells [1]) of the same compound?
Its value is “dose dependent proliferation was observed”.

`O=C([O-])CCC(=O)[O-].[Ca+2]` [Ca salt of succinic acid] was tested. Which “cellular proliferation in TF-1 cells” value (TF-1 cells [1]) did it give?
The value was “showed proliferation activity”.

Which “gene expression changes (RNA-seq)” value (TF-1 cells [2]) does the source give for `O=C(O)CCC(=O)O` [succinate] here?
Its value is “Several genes related to platelet differentiation pathway in succinate treated cells were identified”.

And the “cell cycle entry from quiescence” value (WI38 cells)?
The value was “entered in the cell cycle even in the absence of mitogens”.
